System: K12877-001-R-J1-PDC complex spheroid viability
Test: Anticancer human tumor K12877-001-R-J1-PDC patient-derived lung adenocarcinoma cell line growth inhibition [RAS]
Conditions: for IC50: curve of first compound; for viability, T/C: stronger effect = lower value; active = viability on the fitted dose curve at most 10% of control; inactive = the rest
Summary of the method: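 Multi-cell-type spheroids: tumor cells plus HUVEC endothelial cells and mesenchymal stem cells. RAS-pathway inhibitors were combined with targeted agents, each dosed in half-log steps down from clinical Cmax, or from 10 microM when Cmax was unknown.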

[1] = second compound 0.000949 µM, first compound 0.0316 µM
[2] = second compound 0.000949 µM, first compound 0.1 µM
[3] = second compound 0.000949 µM, first compound 0.316 µM
[4] = second compound 0.000949 µM, first compound 1 µM
[5] = second compound 0.003 µM, first compound 0.0316 µM
[6] = second compound 0.003 µM, first compound 0.1 µM
[7] = second compound 0.003 µM, first compound 0.316 µM
[8] = second compound 0.003 µM, first compound 1 µM
[9] = second compound 0.00949 µM, first compound 0.0316 µM
[10] = second compound 0.00949 µM, first compound 0.1 µM
[11] = second compound 0.00949 µM, first compound 0.316 µM
[12] = second compound 0.00949 µM, first compound 1 µM
[13] = second compound 0.03 µM, first compound 0.0316 µM
[14] = second compound 0.03 µM, first compound 0.1 µM
[15] = second compound 0.03 µM, first compound 0.316 µM
[16] = second compound 0.03 µM, first compound 1 µM
[17] = second compound 0.0949 µM, first compound 0.0316 µM
[18] = second compound 0.0949 µM, first compound 0.1 µM
[19] = second compound 0.0949 µM, first compound 0.316 µM
[20] = second compound 0.0949 µM, first compound 1 µM
[21] = second compound 0.3 µM, first compound 0.0316 µM
[22] = second compound 0.3 µM, first compound 0.1 µM
[23] = second compound 0.3 µM, first compound 0.316 µM
[24] = second compound 0.3 µM, first compound 1 µM
[25] = second compound 0.000949 µM, first compound 3.16 µM
[26] = second compound 0.000949 µM, first compound 10 µM
[27] = second compound 0.003 µM, first compound 3.16 µM
[28] = second compound 0.003 µM, first compound 10 µM
[29] = second compound 0.00949 µM, first compound 3.16 µM
[30] = second compound 0.00949 µM, first compound 10 µM
[31] = second compound 0.03 µM, first compound 3.16 µM
[32] = second compound 0.03 µM, first compound 10 µM
[33] = second compound 0.0949 µM, first compound 3.16 µM
[34] = second compound 0.0949 µM, first compound 10 µM
[35] = second compound 0.3 µM, first compound 3.16 µM
[36] = second compound 0.3 µM, first compound 10 µM
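Note: spheroids exposed to agents for one week before readout.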
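Throughout, for viability, T/C: tumour cells co-cultured with HUVEC and mesenchymal stem cells in spheroids.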

CCN1CCN(Cc2ccc(Nc3ncc(F)c(-c4cc(F)c5nc(C)n(C(C)C)c5c4)n3)nc2)CC1 + CCn1c(-c2cccnc2C(C)OC)c2c3cc(ccc31)N1CCOC(CC(NC(=O)C(C(C)C)N(C)C(=O)C3(F)CCN(C(=O)C#CC(C)(C)N(C)C)CC3)C(=O)N3CCCC(N3)C(=O)OCC(C)(C)C2)C1
0.132 µM: IC50 (second compound 0.0949 µM)
inactive: viability, T/C (second compound 0.000949 µM, first compound 0.00316 µM) 73.5% | viability, T/C (second compound 0.000949 µM, first compound 0.01 µM) 80.4% | viability, T/C [1] 74.3% | viability, T/C [2] 61.5% | viability, T/C [3] 50.1% | viability, T/C [4] 31.5% | viability, T/C (second compound 0.003 µM, first compound 0.00316 µM) 71.8% | viability, T/C (second compound 0.003 µM, first compound 0.01 µM) 76.9% | viability, T/C [5] 68.8% | viability, T/C [6] 69.9% | viability, T/C [7] 42.3% | viability, T/C [8] 28.9% | viability, T/C (second compound 0.00949 µM, first compound 0.00316 µM) 66% | viability, T/C (second compound 0.00949 µM, first compound 0.01 µM) 77.1% | viability, T/C [9] 66.5% | viability, T/C [10] 56.8% | viability, T/C [11] 39.2% | viability, T/C [12] 34% | viability, T/C (second compound 0.03 µM, first compound 0.00316 µM) 74.2% | viability, T/C (second compound 0.03 µM, first compound 0.01 µM) 76.5% | viability, T/C [13] 69.6% | viability, T/C [14] 51.8% | viability, T/C [15] 45.4% | viability, T/C [16] 36.3% | viability, T/C (second compound 0.0949 µM, first compound 0.00316 µM) 76.8% | viability, T/C (second compound 0.0949 µM, first compound 0.01 µM) 65.5% | viability, T/C [17] 58.5% | viability, T/C [18] 61.6% | viability, T/C [19] 36.4% | viability, T/C [20] 25.4% | viability, T/C (second compound 0.3 µM, first compound 0.00316 µM) 67.2% | viability, T/C (second compound 0.3 µM, first compound 0.01 µM) 59.1% | viability, T/C [21] 59.3% | viability, T/C [22] 58% | viability, T/C [23] 39.3% | viability, T/C [24] 27.4%
0.154 µM: IC50 (second compound 0.00949 µM)
0.16 µM: IC50 (second compound 0.3 µM)
0.286 µM: IC50 (second compound 0.000949 µM)
0.229 µM: IC50 (second compound 0.003 µM)
0.146 µM: IC50 (second compound 0.03 µM)

C[C@@H](NC(=O)c1ncnc(N)c1Cl)c1ncc(C(=O)Nc2cc(C(F)(F)F)c(Cl)cn2)s1 + CCn1c(-c2cccnc2C(C)OC)c2c3cc(ccc31)N1CCOC(CC(NC(=O)C(C(C)C)N(C)C(=O)C3(F)CCN(C(=O)C#CC(C)(C)N(C)C)CC3)C(=O)N3CCCC(N3)C(=O)OCC(C)(C)C2)C1
> 10 µM: IC50 (second compound 0.000949 µM) | IC50 (second compound 0.003 µM) | IC50 (second compound 0.00949 µM) | IC50 (second compound 0.03 µM) | IC50 (second compound 0.0949 µM) | IC50 (second compound 0.3 µM)
inactive: viability, T/C [1] 84.5% | viability, T/C [2] 84.7% | viability, T/C [3] 77.3% | viability, T/C [4] 85.3% | viability, T/C [25] 74.4% | viability, T/C [26] 82.7% | viability, T/C [5] 80.2% | viability, T/C [6] 79.2% | viability, T/C [7] 72.6% | viability, T/C [8] 82% | viability, T/C [27] 91.2% | viability, T/C [28] 76.8% | viability, T/C [9] 84.3% | viability, T/C [10] 74.9% | viability, T/C [11] 72% | viability, T/C [12] 73.4% | viability, T/C [29] 81.3% | viability, T/C [30] 78.8% | viability, T/C [13] 80.3% | viability, T/C [14] 81.1% | viability, T/C [15] 71.3% | viability, T/C [16] 88.2% | viability, T/C [31] 89.9% | viability, T/C [32] 87.5% | viability, T/C [17] 79.5% | viability, T/C [18] 77.8% | viability, T/C [19] 78.4% | viability, T/C [20] 75.3% | viability, T/C [33] 89.7% | viability, T/C [34] 72% | viability, T/C [21] 72% | viability, T/C [22] 71.7% | viability, T/C [23] 64.3% | viability, T/C [24] 69.8% | viability, T/C [35] 69.3% | viability, T/C [36] 52.9%

Cc1nc(N2CCC3(CC2)COC(C)C3N)c(CO)nc1Sc1ccnc(N)c1Cl (stereo unspecified) + CCn1c(-c2cccnc2C(C)OC)c2c3cc(ccc31)N1CCOC(CC(NC(=O)C(C(C)C)N(C)C(=O)C3(F)CCN(C(=O)C#CC(C)(C)N(C)C)CC3)C(=O)N3CCCC(N3)C(=O)OCC(C)(C)C2)C1
6.23 µM: IC50 (second compound 0.000949 µM)
0.424 µM: IC50 (second compound 0.3 µM)
2.63 µM: IC50 (second compound 0.00949 µM)
1.2 µM: IC50 (second compound 0.0949 µM)
1.85 µM: IC50 (second compound 0.003 µM)
0.875 µM: IC50 (second compound 0.03 µM)
inactive: viability, T/C [1] 83.6% | viability, T/C [2] 71.1% | viability, T/C [3] 71.5% | viability, T/C [4] 62.5% | viability, T/C [25] 52.8% | viability, T/C [26] 47.3% | viability, T/C [5] 73.6% | viability, T/C [6] 66.2% | viability, T/C [7] 69.8% | viability, T/C [8] 55.6% | viability, T/C [27] 45.6% | viability, T/C [28] 44% | viability, T/C [9] 76.4% | viability, T/C [10] 76% | viability, T/C [11] 57.8% | viability, T/C [12] 57.4% | viability, T/C [29] 50.2% | viability, T/C [30] 42.1% | viability, T/C [13] 83.2% | viability, T/C [14] 73.5% | viability, T/C [15] 59.2% | viability, T/C [16] 49.4% | viability, T/C [31] 40.7% | viability, T/C [32] 36.5% | viability, T/C [17] 72.6% | viability, T/C [18] 70.8% | viability, T/C [19] 58.3% | viability, T/C [20] 48.5% | viability, T/C [33] 46.4% | viability, T/C [34] 33.8% | viability, T/C [21] 57.1% | viability, T/C [22] 67.9% | viability, T/C [23] 53.3% | viability, T/C [24] 38.3% | viability, T/C [35] 37.5% | viability, T/C [36] 31.2%
